From patent US8975241B2, “Composition for treating and preventing obesity including high water-soluble 2-hydroxypropyl-betacyclodextrin as effective component” (Song Ho Biomed Co., Ltd., priority 2009, dated 2015)

How the values were obtained:
[1] = test system: mouse model with obesity caused by a high fat diet; assay: Change in body weight by autonomically drinking in mouse model with obesity caused by high fat diet; type: in vivo; conditions: for degree of body weight decrease as compared with HPBCD: autonomically drinking
Description: Male C57BL/6J mice (Five age of the week, KRIBB, Korea) were accommodated for 1 week, and then were induced with obesity by giving a high fat diet (60% fat kcal, Research Diets) for 15 days. The weights of the animals that were induced with obesity were equally divided into 3 animals as one group. And then, the solvent-control group drank sterilized distilled water, autonomically. Hydroxypropyl-β-cyclodextrin (HPBCD) was dissolved in sterilized distilled water to be 10, 15, and 20% (W/V) concentrations for drinking autonomically. A change in body weight was daily measured to all of animals during the test; the fixed amount of feeds was provided at the day of measuring body weight, and then an amount of intake per a group (g/day) was calculated by measuring a residual amount of feeds at the next day. A change in body weight was measured during the test using α-cyclodextrin (α-CD) instead of 2-hydroxypropyl-β-cyclodextrin (HPBCD) in the same method as the above <Example 1>.

high fat diet-mouse [2] = assay: Change in body weight by oral administration in high fat diet-mouse; type: in vivo; conditions: for degree of body weight decrease as compared with HPBCD: method of Example 3 (oral)
Description: Male C57BL/6J mice (Five age of the week, KRIBB, Korea) were accommodated for 1 week. And then, the weights of the animals were equally divided into 5 animals as one group. While a high fat diet (60% fat kcal) was provided, sterilized distilled water and HPBCDs with 10, 20, and 40% (W/V) were orally administered at three times (Morning, Afternoon, Evening) a day for 5 days in 0.2 ml per 20 g body weight of a mouse at the same time. A change in body weight was measured to all of the animals during the test at one time per day; the fixed amount of feeds was provided at the day of measuring body weight, and then an average amount of intake per an animal (g/mouse/day) was calculated by measuring a residual amount of feeds at the next day.
A body weight was measured by using the same conditions as the above <Example 3>, except that BCDs with 10 and 20% (W/V) concentrations were used instead of HPBCDs with 10, 20, and 40% (W/V) concentrations.
A change in body weight was measured during the test using α-CD instead of HPBCD in the same method as the above <Example 3>.

[3] = test system: mouse model with obesity caused by a high fat diet; assay: Change in body weight by autonomically drinking in mouse model with obesity caused by high fat diet; type: in vivo
high fat diet-mouse [4] = assay: Change in body weight by oral administration in high fat diet-mouse; type: in vivo; conditions: Table 19, β-CD 15% (w/v) oral
mouse = conditions: cited from earlier work
human = conditions: cited from earlier work

Compound: OC[C@H]1O[C@@H]2O[C@H]3[C@H](O)[C@@H](O)[C@@H](O[C@H]4[C@H](O)[C@@H](O)[C@@H](O[C@H]5[C@H](O)[C@@H](O)[C@@H](O[C@H]6[C@H](O)[C@@H](O)[C@@H](O[C@H]7[C@H](O)[C@@H](O)[C@@H](O[C@H]8[C@H](O)[C@@H](O)[C@@H](O[C@H]1[C@H](O)[C@H]2O)O[C@@H]8CO)O[C@@H]7CO)O[C@@H]6CO)O[C@@H]5CO)O[C@@H]4CO)O[C@@H]3CO [BCD, β-cyclodextrin]
- degree of body weight decrease as compared with HPBCD [1]: low
- increase in body weight as compared with the distilled water oral-administering group (high fat diet-mouse [2]; 10 and 20% (W/V) oral): suppressed
- body weight as compared with the initial body weight (high fat diet-mouse [2]; 10 and 20% (W/V) oral, Example 5): not decreased
- Body weight as percent of initial body weight (high fat diet-mouse [2]; Table 15, BCD 10% (w/v) oral, 0 Day): 100.0 ± 0.0%
- Body weight as percent of initial body weight (high fat diet-mouse [2]; Table 15, BCD 10% (w/v) oral, 1 Day): 101.5 ± 2.1%
- Body weight as percent of initial body weight (high fat diet-mouse [2]; Table 15, BCD 10% (w/v) oral, 2 Day): 100.7 ± 1.9 %
- Body weight as percent of initial body weight (high fat diet-mouse [2]; Table 15, BCD 10% (w/v) oral, 3 Day): 102.0 ± 2.5 %
- Body weight as percent of initial body weight (high fat diet-mouse [2]; Table 15, BCD 10% (w/v) oral, 4 Day): 102.4 ± 4.0 %
- Body weight as percent of initial body weight (high fat diet-mouse [2]; Table 15, BCD 10% (w/v) oral, 5 Day): 103.4 ± 4.1 %
- Body weight as percent of initial body weight (high fat diet-mouse [2]; Table 15, BCD 20% (w/v) oral, 0 Day): 100.0 ± 0.0%
- Change in body weight (%) (high fat diet-mouse [2]; Table 15, BCD 20% (w/v) oral, 1 Day): 100.3 ± 2.7 %
- Body weight as percent of initial body weight (high fat diet-mouse [2]; Table 15, BCD 20% (w/v) oral, 2 Day): 102.1 ± 2.1 %
- Body weight as percent of initial body weight (high fat diet-mouse [2]; Table 15, BCD 20% (w/v) oral, 3 Day): 103.1 ± 2.1 %
- Body weight as percent of initial body weight (high fat diet-mouse [2]; Table 15, BCD 20% (w/v) oral, 4 Day): 103.7 ± 3.0 %
- Body weight as percent of initial body weight (high fat diet-mouse [2]; Table 15, BCD 20% (w/v) oral, 5 Day): 103.2 ± 2.6 %
- Body weight as percent of initial body weight (high fat diet-mouse [2]; Table 19, β-CD 10% (w/v) oral, 0 Day): 100.0 ± 0.0%
- Body weight as percent of initial body weight (high fat diet-mouse [2]; Table 19, β-CD 10% (w/v) oral, 1 Day): 100.5 ± 0.8%
- Body weight as percent of initial body weight (high fat diet-mouse [2]; Table 19, β-CD 10% (w/v) oral, 2 Day): 100.1 ± 1.3%
- Body weight as percent of initial body weight (high fat diet-mouse [2]; Table 19, β-CD 10% (w/v) oral, 3 Day): 99.8 ± 1.2%
- Body weight as percent of initial body weight (high fat diet-mouse [2]; Table 19, β-CD 15% (w/v) oral, 2 Day): 99.0 ± 1.4%
- Body weight as percent of initial body weight (high fat diet-mouse [2]; Table 19, β-CD 15% (w/v) oral, 3 Day): 98.5 ± 1.0%
- Body weight as percent of initial body weight (high fat diet-mouse [2]; Table 19, β-CD 20% (w/v) oral, 0 Day): 100.0 ± 0.0%
- Body weight as percent of initial body weight (high fat diet-mouse [2]; Table 19, β-CD 20% (w/v) oral, 1 Day): 99.5 ± 1.1%
- Body weight as percent of initial body weight (high fat diet-mouse [2]; Table 19, β-CD 20% (w/v) oral, 2 Day): 98.6 ± 0.8%
- Body weight as percent of initial body weight (high fat diet-mouse [2]; Table 19, β-CD 20% (w/v) oral, 3 Day): 97.8 ± 1.3%
- degree of body weight decrease as compared with HPBCD (high fat diet-mouse [2]): low
- difference of effect between 10 and 20% (W/V) (high fat diet-mouse [2]; oral): no significant difference
- Change in body weight (%) ([3]; Table 18, β-CD 10% (w/v) autonomically drinking, 0 Day): 100.0 ± 0.0%
- Change in body weight (%) ([3]; Table 18, β-CD 10% (w/v) autonomically drinking, 1 Day): 99.8 ± 0.8%
- Change in body weight (%) ([3]; Table 18, β-CD 10% (w/v) autonomically drinking, 2 Day): 98.5 ± 1.3%
- Change in body weight (%) ([3]; Table 18, β-CD 10% (w/v) autonomically drinking, 3 Day): 98.2 ± 1.2%
- Change in body weight (%) ([3]; Table 18, β-CD 20% (w/v) autonomically drinking, 0 Day): 100.0 ± 0.0%
- Change in body weight (%) ([3]; Table 18, β-CD 20% (w/v) autonomically drinking, 1 Day): 99.1 ± 1.2%
- Change in body weight (%) ([3]; Table 18, β-CD 20% (w/v) autonomically drinking, 2 Day): 98.6 ± 1.2%
- Change in body weight (%) ([3]; Table 18, β-CD 20% (w/v) autonomically drinking, 3 Day): 97.5 ± 1.0%
- Change in body weight (%) ([3]; Table 18, β-CD 40% (w/v) autonomically drinking, 0 Day): 100.0 ± 0.0%
- Change in body weight (%) ([3]; Table 18, β-CD 40% (w/v) autonomically drinking, 1 Day): 98.8 ± 1.1%
- Change in body weight (%) ([3]; Table 18, β-CD 40% (w/v) autonomically drinking, 2 Day): 97.0 ± 0.8%
- Change in body weight (%) ([3]; Table 18, β-CD 40% (w/v) autonomically drinking, 3 Day): 96.4 ± 1.3%
- Body weight as percent of initial body weight (high fat diet-mouse [4]; 0 Day): 100.0 ± 0.0%
- Body weight as percent of initial body weight (high fat diet-mouse [4]; 1 Day): 99.6 ± 1.2%
- antiobesity effect (mouse): suppress a weight increase
- antiobesity effect (human): reduce weight

Compound: OC[C@H]1O[C@@H]2O[C@H]3[C@H](O)[C@@H](O)[C@@H](O[C@H]4[C@H](O)[C@@H](O)[C@@H](O[C@H]5[C@H](O)[C@@H](O)[C@@H](O[C@H]6[C@H](O)[C@@H](O)[C@@H](O[C@H]7[C@H](O)[C@@H](O)[C@@H](O[C@H]1[C@H](O)[C@H]2O)O[C@@H]7CO)O[C@@H]6CO)O[C@@H]5CO)O[C@@H]4CO)O[C@@H]3CO [α-CD, α-cyclodextrin]
- Change in body weight (%) ([1]; Table 16, α-CD 10% (w/v) autonomically drinking, 2 Day): 100.6 ± 0.4%
- Change in body weight (%) ([1]; Table 16, α-CD 15% (w/v) autonomically drinking, 1 Day): 99.8 ± 0.4%
- Change in body weight (%) ([1]; Table 16, α-CD 15% (w/v) autonomically drinking, 2 Day): 99.3 ± 0.8%
- Change in body weight (%) ([1]; Table 16, α-CD 20% (w/v) autonomically drinking, 1 Day): 99.8 ± 0.8%
- Change in body weight (%) ([1]; Table 16, α-CD 20% (w/v) autonomically drinking, 2 Day): 99.0 ± 1.4%
- degree of body weight decrease as compared with HPBCD [1]: low
- Body weight as percent of initial body weight (high fat diet-mouse [2]; Table 17, α-CD 10% (w/v) oral, 0 Day): 100.0 ± 0.0%
- Body weight as percent of initial body weight (high fat diet-mouse [2]; Table 17, α-CD 10% (w/v) oral, 1 Day): 101.3 ± 0.4%
- Body weight as percent of initial body weight (high fat diet-mouse [2]; Table 17, α-CD 10% (w/v) oral, 2 Day): 100.5 ± 1.6%
- Body weight as percent of initial body weight (high fat diet-mouse [2]; Table 17, α-CD 10% (w/v) oral, 3 Day): 100.2 ± 2.7%
- Body weight as percent of initial body weight (high fat diet-mouse [2]; Table 17, α-CD 20% (w/v) oral, 0 Day): 100.0 ± 0.0%
- Body weight as percent of initial body weight (high fat diet-mouse [2]; Table 17, α-CD 20% (w/v) oral, 1 Day): 99.8 ± 0.8%
- Body weight as percent of initial body weight (high fat diet-mouse [2]; Table 17, α-CD 20% (w/v) oral, 2 Day): 99.5 ± 1.2%
- Body weight as percent of initial body weight (high fat diet-mouse [2]; Table 17, α-CD 20% (w/v) oral, 3 Day): 99.2 ± 1.0%
- Body weight as percent of initial body weight (high fat diet-mouse [2]; Table 17, α-CD 40% (w/v) oral, 0 Day): 100.0 ± 0.0%
- Body weight as percent of initial body weight (high fat diet-mouse [2]; Table 17, α-CD 40% (w/v) oral, 1 Day): 99.6 ± 1.0%
- Body weight as percent of initial body weight (high fat diet-mouse [2]; Table 17, α-CD 40% (w/v) oral, 2 Day): 99.0 ± 1.2%
- Body weight as percent of initial body weight (high fat diet-mouse [2]; Table 17, α-CD 40% (w/v) oral, 3 Day): 98.2 ± 1.3%
- degree of body weight decrease as compared with HPBCD (high fat diet-mouse [2]): low
- Change in body weight (%) ([3]; Table 16, α-CD 10% (w/v) autonomically drinking, 0 Day): 100.0 ± 0.0%
- Change in body weight (%) ([3]; Table 16, α-CD 10% (w/v) autonomically drinking, 1 Day): 100.2 ± 0.2%
- Change in body weight (%) ([3]; Table 16, α-CD 10% (w/v) autonomically drinking, 3 Day): 100.1 ± 1.4%
- Change in body weight (%) ([3]; Table 16, α-CD 15% (w/v) autonomically drinking, 0 Day): 100.0 ± 0.0%
- Change in body weight (%) ([3]; Table 16, α-CD 15% (w/v) autonomically drinking, 3 Day): 98.9 ± 1.1%
- Change in body weight (%) ([3]; Table 16, α-CD 20% (w/v) autonomically drinking, 0 Day): 100.0 ± 0.0%
- Change in body weight (%) ([3]; Table 16, α-CD 20% (w/v) autonomically drinking, 3 Day): 98.5 ± 1.3%
